In patent publication US4220644A, “7-Acylamino-3-(substituted tetrazolyl thiomethyl) cephalosporins” (SmithKline Corporation, priority 1976, dated 1980) one finds MIC and ED50 data, which are given here for 4 compounds.

Test [1] relates to S. aureus SK 23390. Nature of the test: MIC in vitro (Table 1), S. aureus SK 23390. It counts as cell-based. Particulars: Staphylococcus aureus. From the text: (§1) Compound names corresponding to numbers are given in the experimental section. For comparative purposes, data for cephamandole, which is 7-mandelamido-3-(1-methyltetrazol-5-ylthiomethyl)-3-cephem-4-carboxylic acid, is also given in Tables 1 and 2.

Test [2] has as its system Pseudo. sp. HH 63. Nature of the test: MIC in vitro (Table 1), Pseudo. sp. HH 63. It counts as cell-based. The note with it: in vitro, Pseudo. sp. HH 63; read-out: MIC. From the text: (§2) The compounds of Formula I have antibacterial activity against both Gram-positive and Gram-negative organisms. […] Compound names corresponding to numbers are given in the experimental section. For comparative purposes, data for cephamandole, which is 7-mandelamido-3-(1-methyltetrazol-5-ylthiomethyl)-3-cephem-4-carboxylic acid, is also given in Tables 1 and 2.

Test [3] has as its system Salmonella ATCC 12176. Nature of the test: MIC in vitro (Table 1), Salmonella ATCC 12176. It counts as cell-based.
From the text: as §2

Test [4] deals with Serra. Marc. ATCC 13880. The test is described as follows: MIC in vitro (Table 1), Serra. Marc. ATCC 13880. The test is classed as cell-based.
From the text: as §1

Test [5] deals with E. coli SK 12140. Nature of the test: MIC in vitro (Table 1), E. coli SK 12140. The test is classed as cell-based. Particulars: Escherichia coli, SK12140, in vitro, read-out: MIC.
From the text: as §1

Test [6] concerns Kleb. pneumo. SK 4200. Nature of the test: MIC in vitro (Table 1), Kleb. pneumo. SK 4200. The test is classed as cell-based.
From the text: as §1

The test system of test [7] is Kleb. pneumo. SK 1200. The test is described as follows: MIC in vitro (Table 1), Kleb. pneumo. SK 1200. It counts as cell-based.
From the text: as §1

In test [8] the test system is E. coli 12140. Nature of the test: In vivo mouse protection (Table 2), E. coli 12140.
From the text: as §1

For test [9], the system named is E. coli HH 33779. Nature of the test: MIC in vitro (Table 1), E. coli HH 33779. The test is classed as cell-based. The note with it: Escherichia coli, HH33779, in vitro, E. coli HH 33779; read-out: MIC.
From the text: as §1

Test [10] deals with Strep. Faecalis HH 34358. The test is described as follows: MIC in vitro (Table 1), Strep. Faecalis HH 34358. It counts as cell-based. Particulars: Enterococcus faecalis.
From the text: as §1

Test [11] has as its system Kleb. pneumo. 4200. Nature of the test: In vivo mouse protection (Table 2), Kleb. pneumo. 4200. Particulars: sc, Kleb. pneumo. 4200, s.c.
From the text: as §1

The subject of test [12] is Entero. cloacae HH 31254. Nature of the test: MIC in vitro (Table 1), Entero. cloacae HH 31254. It counts as cell-based. Particulars: Enterobacter cloacae.
From the text: as §1

Test [13] concerns S. aureus HH 127. Nature of the test: MIC in vitro (Table 1), S. aureus HH 127. Particulars: Staphylococcus aureus. It counts as cell-based.
From the text: as §1

The subject of test [14] is Entero. aerog. ATCC 13048. The test is described as follows: MIC in vitro (Table 1), Entero. aerog. ATCC 13048. It counts as cell-based.
From the text: as §1

Test [15] has as its system Shigella HH 117. Nature of the test: MIC in vitro (Table 1), Shigella HH 117. Particulars: Shigella, HH117, in vitro, read-out: MIC. It counts as cell-based.
From the text: as §2

In test [16] the test system is Proteus morgani 179. Nature of the test: MIC in vitro (Table 1), Proteus morgani 179. The test is classed as cell-based. Particulars: read-out: MIC.
From the text: as §1

Where [17] appears, read: Salmonella, ATCC12176, in vitro, read-out: MIC.
The mark [18] stands for this setting: in vitro, Kleb. pneumo. SK 4200, read-out: MIC.
The mark [19] stands for this setting: Escherichia coli, 12140, po, E. coli 12140, p.o.
[20] abbreviates: Escherichia coli, 12140, sc, E. coli 12140, s.c.
Setting [21] is: HH31254, in vitro, Entero. cloacae HH 31254, read-out: MIC.
[22] abbreviates: in vitro, Strep. Faecalis HH 34358, read-out: MIC.
Where [23] appears, read: HH127, in vitro, S. aureus HH 127, read-out: MIC.
Setting [24] is: in vitro, Entero. aerog. ATCC 13048, read-out: MIC.

Values after ≈ are worked out from the molar mass of the structure shown. Read-outs that look alike come from different tables or passages of the source. Bounds are passed on as bounds.

In general, MIC refers to the smallest concentration in the dilution series that meets the test's criterion for growth inhibition. Broadly, the ED50 is the dose that gives a 50% effect, or the effect in half of the subjects. As to `O=C(O)CCCn1nnnc1SCC1=C(C(=O)O)N2C(=O)C(NC(=O)[C@H](O)c3ccccc3)[C@H]2SC1` (stereo partly drawn) [XII, 7-D-Mandelamido-3-[1-(3-carboxypropyl)tetrazol-5-ylthiomethyl]-3-cephem-4-carboxylic acid], the MIC is 0.4 µg/mL (≈ 0.748 µM) in test [1] (SK23390); more than 200 µg/mL in [2]; 0.4 µg/mL (≈ 0.748 µM) in test [3] (setting [17]); 0.8 µg/mL (≈ 1.5 µM) in [3] (in vitro); 12.5 µg/mL (≈ 23.4 µM) in test [4]; 1.6 µg/mL (≈ 2.99 µM) in test [5]. Moreover, the minimal inhibitory concentration (MIC) in test [6] (setting [18]) was determined as 1.6 µg/mL (≈ 2.99 µM); in test [7] it was 1.6 µg/mL (≈ 2.99 µM); in [7] (read-out: MIC), 0.8 µg/mL (≈ 1.5 µM); in [9], 1.6 µg/mL (≈ 2.99 µM); in test [10] it was 12.5 µg/mL (≈ 23.4 µM); in test [12] (setting [21]) it was 0.8 µg/mL (≈ 1.5 µM). Further, the minimal inhibitory concentration (MIC) in [13] (HH127) is 3.1 µg/mL (≈ 5.8 µM); in [14], 3.1 µg/mL (≈ 5.8 µM); in [15] it was 0.4 µg/mL (≈ 0.748 µM). Also, the values for the ED50 in test [8] (setting [19]), in test [8] (setting [20]) and in test [11] were more than 50 mg/kg, 1.84 mg/kg and 2.9 mg/kg, respectively.
Regarding `O=C(O)CCCCCn1nnnc1SCC1=C(C(=O)O)N2C(=O)C(NC(=O)[C@H](O)c3ccccc3)[C@H]2SC1` (stereo partly drawn) [XIII, 7-D-Mandelamido-3-[1-(5-carboxypentyl)tetrazol-5-ylthiomethyl]-3-cephem-4-carboxylic acid], the MIC in test [1] (SK23390) was 0.8 µg/mL (≈ 1.42 µM); in test [2] it was more than 200 µg/mL; in [3] (setting [17]), 1.6 µg/mL (≈ 2.84 µM); in test [5], 1.6 µg/mL (≈ 2.84 µM); in test [6], 0.8 µg/mL (≈ 1.42 µM); in test [7] (read-out: MIC) it was 1.6 µg/mL (≈ 2.84 µM). Besides, the minimum inhibitory concentration (MIC) was found to be 1.6 µg/mL (≈ 2.84 µM) in test [16]; 3.1 µg/mL (≈ 5.51 µM) in test [9]; 25 µg/mL (≈ 44.4 µM) in [10] (setting [22]); 0.8 µg/mL (≈ 1.42 µM) in test [12] (HH31254); 3.1 µg/mL (≈ 5.51 µM) in test [13] (setting [23]); 6.3 µg/mL (≈ 11.2 µM) in test [14] (setting [24]). For the same compound, in test [15], the MIC came out at 0.8 µg/mL (≈ 1.42 µM). Besides, the ED50 stood at 1.56 mg/kg in [8] (setting [20]) and 0.54 mg/kg in test [11].
`NC(=O)CCCCCn1nnnc1SCC1=C(C(=O)O)N2C(=O)C(NC(=O)[C@H](O)c3ccccc3)[C@H]2SC1` (stereo partly drawn) [XIV, 7-D-Mandelamido-3-[1-(5-carbamoylpentyl)tetrazol-5-ylthiomethyl]-3-cephem-4-carboxylic acid]: the minimum inhibitory concentration (MIC) in test [1] (SK23390) was 0.4 µg/mL (≈ 0.712 µM); in test [2], more than 200 µg/mL; in test [3] (setting [17]), 3.1 µg/mL (≈ 5.52 µM); in test [4], 25 µg/mL (≈ 44.5 µM); in test [5] it was 3.1 µg/mL (≈ 5.52 µM); in [6] (setting [18]), 1.6 µg/mL (≈ 2.85 µM). For the same compound, the MIC in [7] (read-out: MIC) stood at 3.1 µg/mL (≈ 5.52 µM); in test [9], 3.1 µg/mL (≈ 5.52 µM); in test [10], 12.5 µg/mL (≈ 22.3 µM); in test [12] (setting [21]), 1.6 µg/mL (≈ 2.85 µM); in test [13] (setting [23]) it was 1.6 µg/mL (≈ 2.85 µM); in test [14] (setting [24]) it was 6.3 µg/mL (≈ 11.2 µM). Also, the MIC in test [15] amounted to 0.8 µg/mL (≈ 1.42 µM). Moreover, the median effective dose (ED50) in test [8] (setting [20]) and in [11] was 1.1 mg/kg each time.
`NC(=O)CCCn1nnnc1SCC1=C(C(=O)O)N2C(=O)C(NC(=O)CSC(F)(F)F)[C@H]2SC1` (stereo partly drawn) [XX, 7-Trifluoromethylmercaptoacetamido-3-[1-(3-carbamoylpropyl)tetrazol-5-ylthiomethyl]-3-cephem-4-carboxylic acid]: the MIC was 0.2 µg/mL (≈ 0.369 µM) in test [1] (SK23390, in vitro, S. aureus SK 23390, read-out: MIC); more than 200 µg/mL in test [2]; 0.2 µg/mL (≈ 0.369 µM) in [3] (setting [17]); 0.8 µg/mL (≈ 1.48 µM) in [5]; 0.4 µg/mL (≈ 0.739 µM) in [6]; 0.4 µg/mL (≈ 0.739 µM) in [7]. Besides, the MIC in test [16] was found to be 12.5 µg/mL (≈ 23.1 µM); in [9] it was 0.8 µg/mL (≈ 1.48 µM); in test [10] (setting [22]), 6.3 µg/mL (≈ 11.6 µM); in test [12] (setting [21]) it was 0.8 µg/mL (≈ 1.48 µM); in test [13] (setting [23]), 0.4 µg/mL (≈ 0.739 µM); in [14] it was 3.1 µg/mL (≈ 5.72 µM). Besides, the MIC in test [15] was 0.2 µg/mL (≈ 0.369 µM). Further, the ED50 in test [8] (setting [19]) came to 21.5 mg/kg; in test [8] (setting [20]), 0.7 mg/kg.
